Reference: paper PMC5761210 (Journal of Pharmaceutical Analysis, 2014)
Where two headings read alike, the source gives them in different places.

Key:
[1] = no reference given; cited from earlier work
[2] = format: in vitro ADME, human; settings: for Qmax,24 h (maximal absorption: receptor fluid + epidermis + dermis after 24 h): percentage of the applied dose
[3] = EFSA report; cited from earlier work
Salmonella typhimurium = settings: cited from earlier work
[4] = vehicle 50% Glycerol, mean±RSD (%)

**Q.** What does the source list for `CC(=O)CO` [acetol, 1-hydroxypropan-2-one]?
**A.** log Pow [1]: −0.78; dose applied cumulatively found in the receptor chamber ([2]; after 24 h, over the investigated vehicles): 1.3–10.0%; Dm (diffusion coefficient) ([2]; vehicle 50% EtOH, mean±RSD (%)): 1.49±41.8 10^−4 cm^2/h; Kp (permeability coefficient) ([2]; vehicle 50% EtOH, mean±RSD (%)): 3.91±45.1 10^−3 cm/h; Lag time ([2]; vehicle 50% EtOH, mean±RSD (%)): 2.14 ± 51.8 h; Qmax,24 h (maximal absorption: receptor fluid + epidermis + dermis after 24 h) ([2]; vehicle 50% EtOH, mean±RSD (%)): 7.28±29.0%; Dm (diffusion coefficient) [2, 4]: 0.73±22.4 10^−4 cm^2/h; Kp (permeability coefficient) [2, 4]: 0.78±40.3 10^−3 cm/h; Lag time [2, 4]: 4.39 ± 28.7 h; Qmax,24 h (maximal absorption: receptor fluid + epidermis + dermis after 24 h) [2, 4]: 1.75±39.0%; Dm (diffusion coefficient) ([2]; vehicle 50% PG, mean±RSD (%)): 1.07±103.0 10^−4 cm^2/h; Kp (permeability coefficient) ([2]; vehicle 50% PG, mean±RSD (%)): 1.30±79.0 10^−3 cm/h; Lag time ([2]; vehicle 50% PG, mean±RSD (%)): 5.65 ± 70.9 h; Qmax,24 h (maximal absorption: receptor fluid + epidermis + dermis after 24 h) ([2]; vehicle 50% PG, mean±RSD (%)): 2.94±76.0%; Jss (steady-state flux) ([2]; vehicle H2O (pure water), 5% acetol (m/V), 500 µL infinite dose, mean±RSD (%)): 68.3±21.2 µg/cm^2/h; Dm (diffusion coefficient) ([2]; vehicle H2O, mean±RSD (%)): 1.28±49.6 10^−4 cm^2/h; Kp (permeability coefficient) ([2]; vehicle H2O, mean±RSD (%)): 1.30±21.2 10^−3 cm/h; Lag time ([2]; vehicle H2O, mean±RSD (%)): 2.95 ± 71.0 h; Qmax,24 h (maximal absorption: receptor fluid + epidermis + dermis after 24 h) ([2]; vehicle H2O, mean±RSD (%)): 3.37±11.7%; Kp (permeability coefficient) ([2]; vehicle PG (propylene glycol/water 50/50, V/V)): 0.0013 cm/h; Kp (permeability coefficient) ([2]; vehicle glycerol (glycerol/water 50/50, V/V)): 0.000778 cm/h; Kp (permeability coefficient) ([2]; vehicle water): 0.0013 cm/h; genotoxic in-vivo [3]: not likely; Ames tests (in-vitro mutagenic properties) (Salmonella typhimurium): positive
